In general, viscosity refers to the internal friction of a fluid under shear. The term speed of sound denotes how fast a sound wave travels through the sample.

SMILES strings stand for the structures. ± gives the expanded uncertainty stated by the source.

A short description of data set [1]: mn = molality of the nth substance listed, in mol/kg. The conditions noted are these: 100 kPa, Liquid; for viscosity: Capillary tube (Ostwald / Ubbelohde) method; for speed of sound: Frequency=2 MHz, Linear variable-path acoustic interferometer.
For data set [2] the following is noted: 100 kPa, Liquid, Capillary tube (Ostwald / Ubbelohde) method.

Regarding `O` [water] + CCCCn1cc[n+](C)c1.[Cl-], the viscosity in data set [1] (298.15 K, m2 = 0) is 0.8905 ± 0.019 mPa·s.

For `O` [water], the viscosity came out at 0.8905 ± 0.019 mPa·s in data set [2] (298.15 K), 0.7977 ± 0.017 mPa·s in data set [2] (303.15 K), 0.7195 ± 0.015 mPa·s in data set [2] (308.15 K) and 0.6532 ± 0.014 mPa·s in data set [2] (313.15 K).

With `O` [water] + CCCC[P+](C)(CCCC)CCCC.COS(=O)(=O)[O-], the viscosity in data set [1] (298.15 K, m2 = 0) came out at 0.8905 ± 0.019 mPa·s; in data set [1] (303.15 K, m2 = 0), 0.7977 ± 0.017 mPa·s; in data set [1] (308.15 K, m2 = 0), 0.7195 ± 0.015 mPa·s; in data set [1] (313.15 K, m2 = 0), 0.6532 ± 0.014 mPa·s. The speed of sound is on record as 1497.6 ± 4.3 m/s in data set [1] (298.15 K, m2 = 0) and 1528.5 ± 4.3 m/s in data set [1] (313.15 K, m2 = 0).

As to `O` [water] + CC(C)C[P+](C)(CC(C)C)CC(C)C.Cc1ccc(S(=O)(=O)[O-])cc1, the viscosity in data set [1] (298.15 K, m2 = 0) is reported as 0.8905 ± 0.019 mPa·s; in data set [1] (303.15 K, m2 = 0) it was 0.7977 ± 0.017 mPa·s; in data set [1] (308.15 K, m2 = 0), 0.7195 ± 0.015 mPa·s; in data set [1] (313.15 K, m2 = 0), 0.6532 ± 0.014 mPa·s. The speed of sound in data set [1] (298.15 K, m2 = 0) is on record as 1497.6 ± 4.3 m/s; in data set [1] (313.15 K, m2 = 0), 1528.5 ± 4.3 m/s.

Take `CCCCn1cc[n+](C)c1.[Cl-]` [1-butyl-3-methylimidazolium chloride] + O: the viscosity in data set [1] (298.15 K, m1 = 0.0155) amounted to 0.8976 ± 0.019 mPa·s; in data set [1] (298.15 K, m1 = 0.0257), 0.9023 ± 0.019 mPa·s; in data set [1] (298.15 K, m1 = 0.0567), 0.9166 ± 0.019 mPa·s; in data set [1] (298.15 K, m1 = 0.0653), 0.9205 ± 0.019 mPa·s; in data set [1] (298.15 K, m1 = 0.0782), 0.9265 ± 0.019 mPa·s; in data set [1] (298.15 K, m1 = 0.0895), 0.9317 ± 0.019 mPa·s. The viscosity in data set [1] (298.15 K, m1 = 0.0923) stood at 0.933 ± 0.019 mPa·s; in data set [1] (298.15 K, m1 = 0.1052), 0.9389 ± 0.02 mPa·s; in data set [1] (298.15 K, m1 = 0.1123) it was 0.9422 ± 0.02 mPa·s.

As for `O` [water] + CCCC[P+](CCCC)(CCCC)CCCC.[Cl-], the viscosity in data set [1] (298.15 K, m2 = 0) came to 0.8905 ± 0.019 mPa·s; in data set [1] (303.15 K, m2 = 0), 0.7977 ± 0.017 mPa·s; in data set [1] (308.15 K, m2 = 0) it was 0.7195 ± 0.015 mPa·s; in data set [1] (313.15 K, m2 = 0) it was 0.6532 ± 0.014 mPa·s. Further, the speed of sound is 1497.6 ± 4.3 m/s in data set [1] (298.15 K, m2 = 0) and 1528.5 ± 4.3 m/s in data set [1] (313.15 K, m2 = 0).
